Drawing on ChEMBL document CHEMBL2073879, “Human monocarboxylate transporter 2 (MCT2) is a high affinity pyruvate transporter” (J Biol Chem, 1998), this text covers Activity for 8 compounds.

In test [1] the target is T1, Monocarboxylate transporter 2 (Homo sapiens) (UniProt O60669).
T1 sequence (whole entry): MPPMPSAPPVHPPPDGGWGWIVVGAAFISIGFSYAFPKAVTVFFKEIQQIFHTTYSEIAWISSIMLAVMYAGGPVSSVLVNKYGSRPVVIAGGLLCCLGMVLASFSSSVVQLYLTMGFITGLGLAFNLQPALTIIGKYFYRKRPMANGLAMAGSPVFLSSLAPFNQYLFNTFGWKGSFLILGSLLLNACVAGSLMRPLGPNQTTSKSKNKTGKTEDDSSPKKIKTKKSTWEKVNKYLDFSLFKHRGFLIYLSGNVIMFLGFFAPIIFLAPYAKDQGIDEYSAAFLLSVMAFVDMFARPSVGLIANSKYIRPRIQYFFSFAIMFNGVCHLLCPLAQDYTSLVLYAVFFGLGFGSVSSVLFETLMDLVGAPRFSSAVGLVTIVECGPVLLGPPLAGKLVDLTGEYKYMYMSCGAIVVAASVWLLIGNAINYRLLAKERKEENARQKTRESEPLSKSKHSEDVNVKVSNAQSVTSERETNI
Briefly: (§1) TP_TRANSPORTER: inhibition of pyruvate uptake in Xenopus laevis oocytes. The class given is functional, cell-based. Also noted: concentration or dose not given beside the values. Particulars: Oocyte.

Test [2] has as its target T2, Monocarboxylate transporter 1 (Rattus norvegicus) (UniProt P53987).
T2 sequence (whole entry): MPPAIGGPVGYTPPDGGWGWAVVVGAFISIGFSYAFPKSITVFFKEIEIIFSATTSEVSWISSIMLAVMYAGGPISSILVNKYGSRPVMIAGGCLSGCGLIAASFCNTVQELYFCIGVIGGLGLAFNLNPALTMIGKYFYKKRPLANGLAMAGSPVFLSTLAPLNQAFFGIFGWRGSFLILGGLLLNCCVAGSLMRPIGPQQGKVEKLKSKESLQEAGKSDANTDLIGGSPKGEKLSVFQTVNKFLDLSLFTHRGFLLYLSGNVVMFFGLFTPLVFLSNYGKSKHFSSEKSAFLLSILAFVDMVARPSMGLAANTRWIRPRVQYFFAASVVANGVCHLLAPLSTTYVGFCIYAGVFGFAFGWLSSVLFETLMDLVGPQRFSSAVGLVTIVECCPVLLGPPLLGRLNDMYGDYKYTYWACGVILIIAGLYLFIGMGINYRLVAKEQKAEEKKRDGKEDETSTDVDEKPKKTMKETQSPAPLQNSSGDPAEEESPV
The description is as §1. Format: functional, cell-based. Further details: concentration or dose not given beside the values. Particulars: Oocyte.

For the compound `CCOC(=O)/C=C/c1ccc(O)cc1`, the Activity in test [1] was 65%; in test [2], 0%.

With `CC(O)C(=O)[O-].[Na+]` (stereo unspecified), the Activity in test [1] and in test [2] was 0% throughout.

Consider `C[C@@H](O)C(=O)O`, for which the Activity was 10% in test [1] and 30% in test [2].

`O=C(O)CCCO`: the Activity in test [1] is 10%; in test [2] it was 40%.

For the compound `O=CC[C@@H](O)[C@H](O)[C@H](O)CO`, the Activity result in test [1] and in test [2] was “is not an inhibitor [-]” in each case.

As for `CCC(O)C(=O)O` (racemic), the Activity in test [1] was 10%; in test [2], 40%.

Consider `O=C(O)/C=C/c1cccc(O)c1`, for which the results for the Activity in test [1] and in test [2] were 30% and 20%, respectively.

In the case of `CC(O)CC(=O)O` (racemic), the results for the Activity in test [1] and in test [2] were 30% and 20%, respectively.
